Here are results for one compound from ChEMBL document CHEMBL1139986, “Synthesis and biodistribution of 8-iodo-11-(4-methylpiperazino)-5H-dibenzo[b,e][1,4]-diazepine: Iozapine” (Bioorg Med Chem Lett, 2007).

Data set [1] has as its system Pancreas. In words: Biodistribution in BALB/c mouse pancreas at 7 to 8 KBq, iv after 5 mins. It counts as ADME, organism-based. Particulars: in vivo.
Data set [2] has as its system Pancreas. In words: Biodistribution in BALB/c mouse pancreas at 7 to 8 KBq, iv after 120 mins. The class given is ADME, organism-based. Particulars: in vivo, 2 h.
Data set [3] deals with Cerebellum. In words: Biodistribution in BALB/c mouse cerebellum at 7 to 8 KBq, iv after 15 mins. It counts as ADME, organism-based. Particulars: in vivo, 0.25 h.
Data set [4] deals with Kidney. Put plainly: Biodistribution in BALB/c mouse kidney at 7 to 8 KBq, iv after 120 mins. It counts as ADME, organism-based. To be noted: in vivo, 2 h.
The next data set concerns Intestine. In words: Biodistribution in BALB/c mouse intestine at 7 to 8 KBq, iv after 120 mins. Particulars: in vivo, 2 h. It counts as ADME, organism-based.
In a further data set the test system is Lung. In words: Biodistribution in BALB/c mouse lung at 7 to 8 KBq, iv after 60 mins. Particulars: in vivo, 1 h. The class given is ADME, organism-based.
In data set [5] the test system is Kidney. In words: Biodistribution in BALB/c mouse kidney at 7 to 8 KBq, iv after 60 mins. It counts as ADME, organism-based. To be noted: in vivo, 1 h.
Data set [6] relates to Thalamus. Put plainly: Biodistribution in BALB/c mouse thalamus at 7 to 8 KBq, iv after 60 mins. The class given is ADME, organism-based. Particulars: in vivo, 1 h.
The test system of data set [7] is Cerebellum. In words: Biodistribution in BALB/c mouse cerebellum at 7 to 8 KBq, iv after 120 mins. It counts as ADME, organism-based. Particulars: in vivo, 2 h.
In another data set the test system is Thyroid gland. In words: Biodistribution in BALB/c mouse thyroid at 7 to 8 KBq, iv after 60 mins. The class given is ADME, organism-based. Particulars: in vivo, 1 h.
For data set [8], the system named is Medulla. In words: Biodistribution in BALB/c mouse medulla at 7 to 8 KBq, iv after 15 mins. It counts as ADME, organism-based, Medulla of organ. Particulars: in vivo, 0.25 h.
Another data set deals with Spleen. In words: Biodistribution in BALB/c mouse spleen at 7 to 8 KBq, iv after 60 mins. It counts as ADME, organism-based. To be noted: in vivo, 1 h.
Data set [9] deals with Hippocampus. In words: Biodistribution in BALB/c mouse hippocampus at 7 to 8 KBq, iv after 15 mins. It counts as ADME, organism-based. Particulars: in vivo, 0.25 h.
Data set [10] concerns Thalamus. In words: Biodistribution in BALB/c mouse thalamus at 7 to 8 KBq, iv after 15 mins. To be noted: in vivo, 0.25 h. The class given is ADME, organism-based.
In another data set the test system is Brain. Put plainly: Biodistribution in BALB/c mouse brain at 7 to 8 KBq, iv after 5 mins. The class given is ADME, organism-based. To be noted: in vivo.
Data set [11] deals with Hippocampus. In words: Biodistribution in BALB/c mouse hippocampus at 7 to 8 KBq, iv after 60 mins. Particulars: in vivo, 1 h. The class given is ADME, organism-based.
The test system of another data set is Cortex. Put plainly: Biodistribution in BALB/c mouse cortex at 7 to 8 KBq, iv after 60 mins. The class given is ADME, organism-based. To be noted: in vivo, 1 h.
Data set [12] deals with Hippocampus. Put plainly: Biodistribution in BALB/c mouse hippocampus at 7 to 8 KBq, iv after 5 mins. It counts as ADME, organism-based. To be noted: in vivo.
For a further data set, the system named is Mus musculus. Put plainly: Biodistribution in BALB/c mouse upper body at 7 to 8 KBq, iv after 60 mins. It counts as ADME, organism-based. To be noted: in vivo, 1 h.
In data set [13] the test system is Medulla. Put plainly: Biodistribution in BALB/c mouse medulla at 7 to 8 KBq, iv after 5 mins. The class given is ADME, organism-based, Medulla of organ. Particulars: in vivo.

Take `CN1CCN(C2=Nc3cc([125I])ccc3Nc3ccccc32)CC1` [[125I]I-OZAPINE]: the Drug uptake is listed as 1.41 %ID in the data set on Pancreas [1]; 0.16 %ID with Pancreas [2]; 4.71 %ID in the data set with Cerebellum [3]; 1.19 %ID in the data set with Kidney [4]; 34.13 %ID with Intestine; 0.5 %ID in the data set on Lung. In addition, the Drug uptake is given as 2.15 %ID in the data set with Kidney [5]; 1.56 %ID in the data set with Thalamus [6]; 0.12 %ID with Cerebellum [7]; 0.68 %ID in the data set with Thyroid gland; 5.23 %ID with Medulla [8]; 0.13 %ID in the data set with Spleen. In addition, the Drug uptake with Hippocampus [9] is reported as 6.64 %ID; with Thalamus [10] it was 6.15 %ID; in the data set with Brain, 3.49 %ID; in the data set with Hippocampus [11], 2.52 %ID; with Cortex it was 2.05 %ID; in the data set on Hippocampus [12], 7.07 %ID. Besides, the Drug uptake in the data set with Mus musculus is 11.54 %ID; in the data set on Medulla [13], 6.78 %ID.
